Reference: publication PMC9241644, “Evaluation of Novel Quorum Sensing Inhibitors Targeting Auto-Inducer 2 (AI-2) for the Control of Avian Pathogenic Escherichia coli Infections in Chickens” (Microbiology Spectrum, 2022)
“And” between values parts separate entries of the source, which are not always exact repeats. Equal entries are not always repeated.

Tests used:
Rif^R APEC O78 [1] = assay: Efficacy of QSIs in APEC-infected chickens (oral gavage pilot); format: in vivo, Escherichia coli; settings: Table S1, oral gavage pilot
Description: The chicken experiment was carried out using 1-day-old broiler chickens (Mayer Hatchery, OH, USA). Feed and water were given ad libitum. Chickens (n = 6/group) were administered with the QSIs (QSI-1, QSI-2, QSI-5 − 8, QSI-10, ChemBridge, San Diego, CA); previously designated as C1, C2, C5, C6, C7, C8, C10 ([17]) using oral gavage. These compounds were selected based on their high efficacy in in vitro studies and the doses correspond to 30X of the initial in vitro screening concentration ([17]). The QSIs were suspended in dimethyl sulfoxide (DMSO; used as a vehicle) and administered once daily for 5 successive days (starting from day 4 to day 8). The first dose was administered 1 day before the challenge, followed by the second dose on the challenge day (2 h before challenge), followed by three additional doses on subsequent days. Feeders were removed 1 h prior to the treatment and replaced 1 h after the treatment. Chickens were challenged subcutaneously (s/c) on day 5 with Rif^R APEC O78 (1 × 10^7 CFU/bird) in PBS using syringe (27 gauge, 0.5 in.). The challenge dose, which […], was chosen based on preliminary experiments conducted with different infection routes (subcutaneous s/c, intra-tracheal and intra-airsacs) and different doses (10^6, 10^7, and 10^8 CFU/chicken). […] Therefore, we selected this challenge dose and route for evaluation of QSIs in chickens ([34]). The positive (PC; infected with APEC O78 and DMSO treated) and negative (NC; non-infected and non-treated) control groups were included.
(§1) Chickens were monitored for clinical signs for 8 DPI. Any chickens moribund during this period were humanely euthanized and necropsied to determine bacterial load in the internal organs (liver, heart, lung, and kidney). Internal organs were aseptically collected, weighed and suspended in 1× PBS, the amount of PBS added was adjusted based on the organ size to make a suspension, the organ size and amount of PBS added were included in the final calculation of the CFU. The samples were homogenized, serially diluted 10-fold, plated on MacConkey agar (Remel, CA, USA) containing 50 μg/mL rifampicin, and incubated at 37°C for 24 h to determine the CFU/g. Pathological lesions severity in internal organs (pericarditis, perihepatitis, airsacculitis, and lung congestion) was scored as described previously ([21], [59]). At 8 DPI, the remaining chickens were humanely euthanized and necropsied, lesions were scored, and the APEC load was quantified in internal organs as described above.

Rif^R APEC O78 [2] = assay: Comparative efficacy of QSI-5 and SDM in field simulated conditions (built-up floor litter); format: in vivo, Escherichia coli
Text: as §1
To compare the efficacy of QSI-5 with an antibiotic SDM currently used in the field, chickens (n = 70) were raised on built-up floor litter in a field-simulated conditions. One-day-old broiler chickens (Case Farms Ohio Hatchery, OH, USA) were used for conducting the experiment. The optimized dose of QSI-5 (1 mg/L) and the therapeutic dose of SDM (495.323 mg/L) (0.05%) were given in drinking water daily for 7 days (starting from day 5 to day 11 of age). The volume of drinking water needed daily was determined as described above. On day 6, the chickens were infected s/c with Rif^r APEC O78 (5 × 10^6 CFU/chicken, s/c). PC (0.05% DMSO treated and infected) and NC (non-infected and non-treated) control groups were included. The mortality was recorded daily until the end of the experiment (42 days of age: slaughter age). At 8 DPI, half of the chickens from each group were necropsied, lesions were scored, and the APEC load was quantified in the internal organs as described above. The other half of the chickens were raised until day 42 to determine the impact of treatment on the body weight gain and feed intake. To calculate the FCR, body weight was measured once every week and feed intake was recorded every day. On day 42, the remaining chickens were euthanized, body weight was measured and 10 chickens from each group were randomly selected and necropsied, lesions and APEC load were assessed in the internal organs.

Compound: Cc1ccc(CN2CCN(CCCc3ccccc3)CC2)cc1 [QSI-5]
- Average lesion severity, Lung (Rif^R APEC O78 [1]; lesion score, PC 1.25): 0.17
- Average lesion severity, Liver (Rif^R APEC O78 [1]; lesion score, PC 1.75): 0.33
- Average lesion severity, Airsac (Rif^R APEC O78 [1]; lesion score, PC 2.00): 0.17
- Average lesion severity, Heart (Rif^R APEC O78 [1]; lesion score, PC 2.25): 0.33
- Mortality rate % (Nr.) (Rif^R APEC O78 [1]; n = 6/group, 8 DPI, PC 66.6 (4/6)): 0%
- Average APEC load, Liver (Rif^R APEC O78 [1]; PC 5.95): 0.72 Log CFU/g of tissue
- Average APEC load, Heart (Rif^R APEC O78 [1]; PC 5.98): 0.58 Log CFU/g of tissue
- Average APEC load, Kidney (Rif^R APEC O78 [1]; PC 6.81): 0.67 Log CFU/g of tissue
- Average APEC load, Lung (Rif^R APEC O78 [1]; PC 6.83): 0.75 Log CFU/g of tissue
- Average lesion severity, Lung (Rif^R APEC O78 [2]; Table S3, PC 1.85): 0.21
- Average lesion severity, Liver (Rif^R APEC O78 [2]; Table S3, PC 2.52): 1.68
- Average lesion severity, Airsac (Rif^R APEC O78 [2]; Table S3, PC 3.36): 1.25
- Average lesion severity, Heart (Rif^R APEC O78 [2]; Table S3, PC 3.58): 1.93
- Average APEC load, Liver (Rif^R APEC O78 [2]; Table S3, PC 7.24): 4.95 Log CFU/ g of tissue
- Average APEC load, Lung (Rif^R APEC O78 [2]; Table S3, PC 7.68): 4.93 Log CFU/ g of tissue
- Average APEC load, Kidney (Rif^R APEC O78 [2]; Table S3, PC 7.73): 5.06 Log CFU/ g of tissue
- Average APEC load, Heart (Rif^R APEC O78 [2]; Table S3, PC 7.92): 5.46 Log CFU/ g of tissue
- Mortality rate % (Nr.) (Rif^R APEC O78 [2]; Table S3, until 42 days of age, QSI-5 (8/63), SDM (19/65), PC 45.6 (31/68)): 12.7%
- reduction in mortality compared with the PC group (Rif^R APEC O78 [2]; built-up floor litter, QSI-5 1 mg/L, SDM 495.3 mg/L (0.05%) in drinking water 7 days, s/c APEC O78 5 × 10^6 CFU/chicken): 88.4% and 72.2%
